# What was measured:
# NK2 receptors = molecular target: T1, NK2 receptors (Oryctolagus cuniculus, UniProt P79218); assay: Isolated smooth muscle: rabbit pulmonary artery without endothelium (RPA) contraction, antagonist pA2; assay type: biochemical
# T1 construct: the rabbit pulmonary artery without endothelium (RPA); from tissue; host or cells: rabbit pulmonary artery without endothelium
# T1 sequence (P79218 1-384): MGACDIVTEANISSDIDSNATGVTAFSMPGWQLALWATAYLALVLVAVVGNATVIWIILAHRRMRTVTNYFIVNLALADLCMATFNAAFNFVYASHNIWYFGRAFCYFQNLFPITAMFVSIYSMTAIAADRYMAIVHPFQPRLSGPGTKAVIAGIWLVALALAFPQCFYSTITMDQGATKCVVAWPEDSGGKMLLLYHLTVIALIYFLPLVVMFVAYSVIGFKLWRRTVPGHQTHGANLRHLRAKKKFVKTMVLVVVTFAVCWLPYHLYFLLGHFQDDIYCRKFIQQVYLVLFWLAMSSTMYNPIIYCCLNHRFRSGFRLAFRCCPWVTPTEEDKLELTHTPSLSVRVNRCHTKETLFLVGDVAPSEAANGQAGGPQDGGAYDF
# Source text: (§1) In order to evaluate the functional activity of the compounds of the invention as neurokinin antagonists, two isolated preparations of smooth muscle were used: the rabbit vena cava (RVC) and the rabbit pulmonary artery without endothelium (RPA), the contractile responses of which are mediated, respectively, by the NK1 and NK2 receptors as shown by D. Jukic et al. (Life Sci. 1991, 49, 1463-1469).
# (§2) The antagonist power of the compounds of the invention was expressed in the form of pA2 as defined by O. Arunlakshana and H. O. Schild (Brit. J. Pharmacol. 1959, 14, 48-58).
# human NK2 receptor = molecular target: T2, human NK2 receptor (Homo sapiens, UniProt P21452); assay: Affinity for the human NK2 receptor on transfected CHO-K1 cells; assay type: binding; conditions: CHO-K1 cells transfected with the NK2 receptor
# T2 construct: expressed in transfected cells; host or cells: CHO-K1
# T2 sequence (P21452 1-398): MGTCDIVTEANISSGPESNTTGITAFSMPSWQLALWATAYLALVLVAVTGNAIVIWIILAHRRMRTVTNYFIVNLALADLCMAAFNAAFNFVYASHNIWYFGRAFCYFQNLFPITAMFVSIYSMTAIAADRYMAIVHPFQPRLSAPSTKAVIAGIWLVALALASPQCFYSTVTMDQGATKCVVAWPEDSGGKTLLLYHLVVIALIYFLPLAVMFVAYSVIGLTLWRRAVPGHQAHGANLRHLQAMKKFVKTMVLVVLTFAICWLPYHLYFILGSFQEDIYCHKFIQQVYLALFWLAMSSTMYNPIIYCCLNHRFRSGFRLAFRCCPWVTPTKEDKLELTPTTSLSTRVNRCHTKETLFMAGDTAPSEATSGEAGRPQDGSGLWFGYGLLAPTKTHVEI
# Source text: (§3) The affinity for the human NK1 and NK2 receptors was studied on IM-9 human lymphoblasts specifically expressing the NK1 receptor as described by D. G. Payan et al. (J. Biol. Chem. 1986, 261, 14321-14329) and on CHO-K1 cells transfected with the NK2 receptor according to the CellPhect transfection kit (Pharmacia).
# NK1 receptors = molecular target: T3, NK1 receptors (Oryctolagus cuniculus, UniProt G1SEI7); assay: Isolated smooth muscle: rabbit vena cava (RVC) contraction, antagonist pA2; assay type: biochemical
# T3 construct: two isolated preparations of smooth muscle were used: the rabbit vena cava (RVC); from tissue; host or cells: rabbit vena cava
# Source text: as §1, §2
# [1] = tested on: substance P-induced bronchoconstriction; assay: Inhibition of substance P-induced bronchoconstriction in guinea pigs; assay type: in vivo
# Description: The study is carried out on male Hartley guinea pigs (Charles River) weighing 300 to 400 g on average. The study is carried out on anesthetized (ethyl carbamate 1.5 g/kg) and Flaxedilcurarized (0.2 mg/kg iv) animals ventilated at a rate of 60 per minute and a volumetric flow of 10ml/kg. The animals are pretreated with pyrilamine (1 mg/kg iv) and propranolol (1 mg/kg iv).
# The criterion of judgment of bronchoconstriction is the increase in tracheal insufflation pressure (TIP) induced by the iv injection of substance P at a dose of 2 nM/kg iv, each animal being its own control. Injection of the test product is performed with reference to the time TO of the injection of the product.
# The results are expressed as a dose inhibiting substance P-induced bronchoconstriction by 50%, this percentage being calculated according to the following formula: (ΔTIP before product-ΔTIP after product)/ΔTIP before product (expressed as a percentage).
# human NK1 receptor = molecular target: T4, human NK1 receptor (Homo sapiens, UniProt P25103); assay: Affinity for the human NK1 receptor on IM-9 human lymphoblasts; assay type: binding
# T4 construct: IM-9 human lymphoblasts specifically expressing the NK1 receptor; endogenous in cells; host or cells: IM-9 human lymphoblasts
# Source text: as §3
# [2] = tested on: capsaicin-induced plasma extravasation; assay: Inhibition of capsaicin-induced plasma extravasation in guinea pig bronchi; assay type: in vivo, guinea pigs; conditions: iv 5 minutes before capsaicin 200 μg/kg iv, Evans blue
# Description: The effect of the compounds on the plasma extravasation caused by intravenous injection of capsaicin (200 μg/kg) in guinea pigs was evaluated in the bronchi according to the method described by Robineau et al (Eur. J. Pharmacol., 1995, 294, 677-684). The accumulation in the bronchi of Evans blue injected IV 1 minute before capsaicin was quantified by spectrophotometry after extraction of the dye with acetone. The inhibitory activity of the compounds via the intravenous route 5 minutes before capsaicin was expressed as a 50% inhibitory dose in comparison to a control group (8 animals per group).
# T4 sequence (P25103 whole entry): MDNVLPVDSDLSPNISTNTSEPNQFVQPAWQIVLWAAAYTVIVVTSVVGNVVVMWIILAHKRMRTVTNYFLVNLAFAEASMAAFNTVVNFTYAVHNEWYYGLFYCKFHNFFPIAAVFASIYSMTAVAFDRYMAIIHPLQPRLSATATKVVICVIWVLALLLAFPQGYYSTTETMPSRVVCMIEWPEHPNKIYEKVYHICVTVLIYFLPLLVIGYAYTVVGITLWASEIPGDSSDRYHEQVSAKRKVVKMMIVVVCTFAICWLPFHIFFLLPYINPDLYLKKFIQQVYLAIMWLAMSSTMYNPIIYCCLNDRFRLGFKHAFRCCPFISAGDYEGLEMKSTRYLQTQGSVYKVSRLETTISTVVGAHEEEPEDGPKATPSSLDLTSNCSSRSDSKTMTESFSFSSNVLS
# T3 sequence (G1SEI7 1-407): as the sequence (P25103 whole entry) above, with S12F, N189D, P369A, D371E, T376N, C386G, D391N, S402Y, V405M counted along it
structure (smiles),measurement,setting,value
"O=C(OCc1cc(C(F)(F)F)cc(C(F)(F)F)c1)[C@H](Cc1c[nH]c2ccccc12)NC(=O)[C@@H]1C[C@@H](O)CN1C(=O)c1cn(CCCCc2nnn[nH]2)c2ccccc12.[K] [Example 1, {1-[4-(1H-Tetrazol-5-yl)butyl]-3-indolyl}carbonyl-Hyp-Trp-OBzl(3,5-ditrifluoromethyl) potassium salt]",pA2 in relation to the NK2 receptors,NK2 receptors,5.2
same,Ki,human NK2 receptor,4.2 µM
same,pA2 in relation to the NK1 receptors,NK1 receptors,8.9
same,"ED50, dose inhibiting substance P-induced bronchoconstriction by 50%","[1]; anesthetized guinea pigs, substance P 2 nM/kg iv, tracheal insufflation pressure",0.06 mg/kg
same,"Potency relative to compound of Example 1 of Patent EP 684,257","[1]; substance P-induced bronchoconstriction, guinea pigs",two and a half times as potent
same,Ki,human NK1 receptor,2.4 nM
same,"ED50, inhibition of capsaicin-induced plasma extravasation",[2],26 µg/kg
